Source: patent publication US20230390315A1, “COMPOSITIONS AND METHODS FOR TREATING ISCHEMIC CONDITIONS” (The Regents of the University of California, priority 2020, published 2023)

Assays:
Calu6 = Calu6 proliferation assay; assay type: cell-based, human
Method: (§1) Proliferation assays with fibroblasts were done in low-glucose DMEM containing 1% FBS, with or without 10 ng/ml bFGF, or 100 ng/ml human EGF and the assay was ended at day 3. ARPE-19 cells were gently lifted with 0.025% trypsin and plated in RtEGM media (Clonetics) containing 2% FBS, L-glutamine, human bFGF and GA-1000. Once cells were attached to plates, serum-free RtEGM media was used to maintain the cultures. For proliferation assays, 1500 human RPE cells were plated into 96-well plates in low-glucose DMEM containing 1% FBS. A673, U87MG, Calu6 and AML12 cells were grown until confluent and were then harvested and re-suspended in appropriate assay media. For proliferation assays, cells were plated at the density of 1000-2000 cells/well in low-glucose DMEM containing 5% FBS or otherwise stated. Bovine pituitary cells (pituitary folliculostellate cells) were isolated as previously described. For proliferation assays with human epidermal keratinocytes, human DMVECs and human dermal fibroblast cells, 1000 cells/well were plated in low-glucose DMEM containing 1% FBS with or without various growth factors. The assay was ended at day 3 for bovine pituitary cells and at day 4 for all the other cell types. […] Four days later, tumor cell growth was measured by the MTS assay (Promega, Madison, WI), a colorimetric assay that measures metabolic activity of viable cells. […]

[1] = system: human retinal microvascular EC (hRMECs); experiment: hRMEC proliferation assay; assay type: cell-based
Method: Proliferation assays with BCECs and BRECs were performed. Log-phase growing BCECs or BRECs (passage <10) were trypsinized, re-suspended and seeded in 96-well plates (no coating) in low-glucose DMEM supplemented with 10% bovine calf serum, 2 mM glutamine, and antibiotics (growth medium), at a density of 1200-1500 cells per well in 200 μl volume. All reagents were added at the indicated final concentrations. After 3-6 days, cells were incubated with AlamarBlue for 4 hrs. Fluorescence was measured at 530 nm excitation wavelength and 590 nm emission wavelength. The experiments were repeated at least three times. To create a hypoxic condition, cells were placed in a hypoxia incubator with a mixture of gas consisting of 1% 02, 5% CO2 and 94% Nz. On each 96-well plate, untreated and VEGF-treated (10/ng/ml) wells were included to monitor plate-to-plate variations. 20% methanol or 0.05% DMSO served as negative controls. 0.05% DMSO served as negative controls when Cas was tested in these cells. Human RMVECs and human adult DMVECs were split into Gelatin-coated 96 wells (2000 cells per well) in low glucose DMEM containing 10% FBS. 1200 cells/well was set up for proliferation assay in low glucose media containing FBS. Data was collected at day 4 or 5. HUVEC (p7-10) were grown on gelatin-coated plate until it reached 70-80% confluency.

skin wound = experiment: Skin wound healing model (splinted wound); assay type: in vivo, mouse; details: day 4; topical 20 μg daily
Excerpt: The model has been previously described. Briefly, C57BL/6 female mice (8-10 weeks old) were obtained from Jackson labs (Sacramento, CA). A fresh, full-thickness punch wound (4 mm diameter) using a punch (Acu Punch, Acuderm inc. Ft. Lauderdale, FL) splinted with a sterile neoprene ring (6-mm outer diameter and 4-mm inner diameter), fastened with 5-6 sutures (4-0 nylon) under the influence of Isoflurane was created on the back of the animal in a Class II Biological Safety Cabinet. For all surgical procedures, sterile technique was followed. Buprenorphine was given subcutaneously prior to awakening from anesthesia for anticipated pain. Mice were monitored until fully awake and were housed individually to minimize damage/biting/fighting to the surgical site. […] Treatment agents were prepared in PBS, sterile-filtered and 25 μl solution was applied daily directly to a wound bed for the first 4-5 days under the influence of Isoflurane, followed by daily observation. Wound closure was monitored by regular imaging and the wound area was quantified using ImageJ (National Institutes of Health, Bethesda, MD, USA). […] Epithelial gap was measured histomorphometrically using AxioVision LE Rel.4.4 software. […] Small vessels stained positive for CD31 were counted microscopically on 10 fields (20×) taken around the wound.

ARPE-19 RPE cells = experiment: Human RPE cell proliferation assay; assay type: cell-based
Method: as §1

ERK and AKT = experiment: Western blot of ERK and AKT activation in HUVEC and hDMVECs; assay type: cell-based, human; details: 40 uM; HUVEC and hDMVECs
Method: Cells were allowed to reach 80% confluency in 12-well plates. […] At various time points, plates were taken out of the incubator and kept on ice. Cell monolayers were first washed once with ice-cold PBS before lysis with 250 μl of Pierce RIPA buffer (ThermoFisher Scientific, Rockford, IL) or use 50 mM Tris-HCl (pH 7.6), 150 mM NaCl, 10% Glycerol, 1% NP-40 containing protease/Phosphatase inhibitor cocktail (100×) (Cell signaling, #5872). Lysates were collected and mixed with 4×Bolt LDS Sample Buffer (Novex, Carlsbad, CA) in the presence of Halt protease inhibitors and phosphatase inhibitor cocktail (ThermoFisher scientific, #NP0007). The samples were subjected to SDS-PAGE (Bolt 4-12% Bis-Tris Plus, Invitrogen) using Bolt MES SDS running buffer or NuPAGE 3-8% Tris-Acetate gel using Tris-Acetate SDS running buffer (Novex). HUVECs (passage 6-8) were plated in EBM-2 basal medium (Lonza) with 0.2% FBS. […] Equal amounts of protein lysates were analyzed by SDS-PAGE and blotted with the indicated antibodies. Proteins were transferred using Tris-Glycine buffer with 20% Methanol (Proteonomics grade) (Apex BioResearch Products). Membranes were first incubated with 5% milk in TBST, pH 7.6 (TEKnova, Hollister, CA), followed by blotting with primary and secondary antibodies. […]

Row | Compound | growth of Calu6 (Calu6) | additivity with VEGF on proliferation [1] | toxicity ([1]; at 5 mM) | average closure of the wound (skin wound) [%] | cellular toxicity, sensitivity among cell types (ARPE-19 RPE cells; 5 mM level of ManN) | proliferation of human RPEs (ARPE-19 RPE cells; alone or in combination with growth factors) | activation of ERK and AKT (ERK and AKT)
1 | N[C@H](C=O)[C@@H](O)[C@H](O)[C@H](O)CO [ManN, 2-Amino-2-deoxy-D-mannose] | did not promote growth | dose-dependent additivity with VEGF | minimal toxicity | 75.6 | least sensitive | no increases in proliferation | –
2 | O=C1N[C@@H]2[C@@H](O)[C@@H](O)[C@H](O)[C@@H](CO)N2C1=O [Kif, Kifunensine, reference compound] | – | – | – | – | – | – | significantly activate
